# In patent US20120324604A1, “PESTICIDAL MIXTURES CONTAINING ISOXAZOLINE DERIVATIVES AND A FUNGICIDE” (priority 2010, published 2012):
# Where “and” joins values, the source holds several entries; their conditions need not be identical. Equal values may be shown once.
# Columns and labels:
# Type in all cases: cell-based
# [1] = tested on: Mycosphaerella arachidis (syn. Cercospora arachidicola); test: Mycosphaerella arachidis (Brown Leaf Spot of Groundnut) growth inhibition, microtiter plate, photometric; conditions: alone
# Method: Mycosphaerella arachidis (syn. Cercospora arachidicola), Brown Leaf Spot of Groundnut (Peanut):
# (§1) Conidia of the fungus from cryogenic storage were directly mixed into nutrient broth (potato dextrose broth). After placing a (DMSO) solution of the test compounds into a microtiter plate (96-well format) the nutrient broth containing the fungal spores was added.
# Gaeumannomyces graminis = Gaeumannomyces graminis growth inhibition, microtiter plate, photometric
# Method: Mycelial fragments of the fungus from cryogenic storage were directly mixed into nutrient broth (potato dextrose broth). After placing a (DMSO) solution of the test compounds into a microliter plate (96-well format) the nutrient broth containing the fungal spores was added.
# Septoria tritici = Septoria tritici (Leaf Blotch) growth inhibition, microtiter plate, photometric
# Method: Septoria tritici (Leaf Blotch):
# as §1
# Rhizoctonia solani = Rhizoctonia solani (Foot Rot, Damping-Off) growth inhibition, microtiter plate, photometric
# Method: Rhizoctonia solani (Foot Rot, Damping-Off):
# Mycelial fragments of the fungus from cryogenic storage were directly mixed into nutrient broth (potato dextrose broth). After placing a (DMSO) solution of the test compounds into a microtiter plate (96-well format) the nutrient broth containing the fungal spores was added.
# Fusarium culmorum = Fusarium culmorum (Root Rot) growth inhibition, microtiter plate, photometric
# Method: Fusarium culmorum (Root Rot):
# as §1
# [2] = tested on: Glomerella lagenarium (syn. Colletotrichum lagenarium); test: Glomerella lagenarium (Anthracnose of Cucurbits) growth inhibition, microtiter plate, photometric; conditions: alone
# Method: Glomerella lagenarium (syn. Colletotrichum lagenarium), Anthracnose of Cucurbits:
# as §1
# Pythium ultimum = Pythium ultimum (Damping Off) growth inhibition, microtiter plate, photometric
# Method: Pythium ultimum (Damping Off):
# Mycelial fragments of the fungus, prepared from a fresh liquid culture, were directly mixed into nutrient broth (potato dextrose broth). After placing a (DMSO) solution of the test compounds into a microtiter plate (96-well format) the nutrient broth containing the fungal spores was added.
# [3] = single compound at 0.125 ppm AI
compound,measurement,setting,value
CC1COC(Cn2cncn2)(c2ccc(Oc3ccc(Cl)cc3)cc2Cl)O1 (stereo not drawn) [Difenoconazole],AVERAGE DEAD IN %,[1]; 0.00390625 ppm AI,0%
same,AVERAGE DEAD IN %,[1]; 0.0078125 ppm AI,50%
same,AVERAGE DEAD IN %,[1]; 0.00390625 PPM AI,0%
same,AVERAGE DEAD IN %,[1]; 0.015625 PPM AI,50% and 90%
same,AVERAGE DEAD IN %,Gaeumannomyces graminis; single compound at 0.25 ppm AI,0%
same,AVERAGE DEAD IN %,Gaeumannomyces graminis; single compound at 0.5 ppm AI,0%
same,AVERAGE DEAD IN %,Gaeumannomyces graminis; single compound at 1 ppm AI,20%
same,AVERAGE DEAD IN %,Gaeumannomyces graminis; single compound at 2 ppm AI,90%
same,AVERAGE DEAD IN %,"Septoria tritici; 0.03125 ppm AI, alone",50%
same,AVERAGE DEAD IN %,"Septoria tritici; 0.0625 ppm AI, alone",70%
same,AVERAGE DEAD IN %,"Septoria tritici; 0.125 ppm AI, alone",90%
same,AVERAGE DEAD IN %,"Septoria tritici; 0.25 ppm AI, alone",90%
same,AVERAGE DEAD IN %,"Septoria tritici; 0.5 ppm AI, alone",90%
same,AVERAGE DEAD IN %,"Septoria tritici; 1 ppm AI, alone",90%
same,AVERAGE DEAD IN %,"Septoria tritici; 2 ppm AI, alone",90%
same,AVERAGE DEAD IN % Difenoconazole,"Septoria tritici; Difenoconazole alone, 0.0078125 ppm AI",0%
same,AVERAGE DEAD IN % Difenoconazole,"Septoria tritici; Difenoconazole alone, 0.015625 ppm AI",0%
same,AVERAGE DEAD IN % Difenoconazole,"Septoria tritici; Difenoconazole alone, 0.0625 ppm AI",50% and 70%
same,AVERAGE DEAD IN % Difenoconazole,"Septoria tritici; Difenoconazole alone, 0.125 ppm AI",70% and 90%
same,AVERAGE DEAD IN % Difenoconazole,"Septoria tritici; Difenoconazole alone, 0.25 ppm AI",70% and 90%
same,AVERAGE DEAD IN % Difenoconazole,"Septoria tritici; Difenoconazole alone, 0.5 ppm AI",90%
same,AVERAGE DEAD IN % Difenoconazole,"Septoria tritici; Difenoconazole alone, 1 ppm AI",90%
same,AVERAGE DEAD IN % Difenoconazole,"Septoria tritici; Difenoconazole alone, 2 ppm AI",90%
same,AVERAGE DEAD IN %,"Rhizoctonia solani; applied alone, 0.25 ppm AI",20%
same,AVERAGE DEAD IN %,"Rhizoctonia solani; applied alone, 0.5 ppm AI",50% and 70%
same,AVERAGE DEAD IN %,"Rhizoctonia solani; applied alone, 1 ppm AI",50% and 100%
same,AVERAGE DEAD IN %,"Rhizoctonia solani; applied alone, 2 ppm AI",100%
same,AVERAGE DEAD IN %,"Fusarium culmorum; alone, 0.25 PPM AI",20%
same,AVERAGE DEAD IN %,"Fusarium culmorum; alone, 0.5 PPM AI",20%
same,AVERAGE DEAD IN %,"Fusarium culmorum; alone, 1 PPM AI",20%
same,AVERAGE DEAD IN %,"Fusarium culmorum; alone, 2 PPM AI",90%
same,AVERAGE DEAD IN %,"Fusarium culmorum; single compound, 0.25 PPM AI, 48 hrs, 24° C.",20%
same,AVERAGE DEAD IN %,"Fusarium culmorum; single compound, 0.5 PPM AI, 48 hrs, 24° C.",20%
same,AVERAGE DEAD IN %,"Fusarium culmorum; single compound, 1 PPM AI, 48 hrs, 24° C.",70%
same,AVERAGE DEAD IN %,[2]; 0.5 ppm AI,20%
same,AVERAGE DEAD IN %,[2]; 1 ppm AI,20%
"CC(C)C1C2CCC1c1c(NC(=O)c3cn(C)nc3C(F)F)cccc12 (stereo not drawn) [Isopyrazam, reference compound]",AVERAGE DEAD IN %,[1]; 0.0078125 ppm AI,0%
same,AVERAGE DEAD IN %,[1]; 0.015625 ppm AI,0%
same,AVERAGE DEAD IN %,[1]; 0.03125 ppm AI,20%
same,AVERAGE DEAD IN %,[1]; 0.0625 ppm AI,70% and 90%
same,AVERAGE DEAD IN %,[1]; 0.015625 PPM AI,0%
same,AVERAGE DEAD IN %,[1]; 0.03125 PPM AI,20%
same,AVERAGE DEAD IN %,[1]; 0.0625 PPM AI,50% and 70%
same,AVERAGE DEAD IN %,"Gaeumannomyces graminis; applied alone, 0.25 ppm AI",0%
same,AVERAGE DEAD IN %,"Gaeumannomyces graminis; applied alone, 0.5 ppm AI",0%
same,AVERAGE DEAD IN %,Gaeumannomyces graminis; single compound at 0.5 ppm AI,0%
same,AVERAGE DEAD IN %,Gaeumannomyces graminis; single compound at 2 ppm AI,50%
same,AVERAGE DEAD IN %,"Septoria tritici; 0.0625 ppm AI, alone",20%
same,AVERAGE DEAD IN %,"Septoria tritici; 0.125 ppm AI, alone",50%
same,AVERAGE DEAD IN %,"Septoria tritici; 0.25 ppm AI, alone",70%
same,AVERAGE DEAD IN %,"Septoria tritici; 0.5 ppm AI, alone",90%
same,AVERAGE DEAD IN % Isopyrazam,"Septoria tritici; Isopyrazam alone, 0.0625 ppm AI",20%
same,AVERAGE DEAD IN % Isopyrazam,"Septoria tritici; Isopyrazam alone, 0.25 ppm AI",90% and 70%
same,AVERAGE DEAD IN % Isopyrazam,"Septoria tritici; Isopyrazam alone, 0.5 ppm AI",90%
same,AVERAGE DEAD IN %,"Septoria tritici; alone, 0.0078125 ppm AI",0%
same,AVERAGE DEAD IN %,"Septoria tritici; alone, 0.015625 ppm AI",0%
same,AVERAGE DEAD IN %,"Septoria tritici; alone, 0.03125 ppm AI",0%
same,AVERAGE DEAD IN %,"Septoria tritici; alone, 0.0625 ppm AI",20%
same,AVERAGE DEAD IN %,"Septoria tritici; alone, 0.125 ppm AI",50%
same,AVERAGE DEAD IN %,"Septoria tritici; alone, 0.25 ppm AI",70%
same,AVERAGE DEAD IN %,"Septoria tritici; alone, 0.5 ppm AI",90%
same,AVERAGE DEAD IN %,"Rhizoctonia solani; applied alone, 0.015625 ppm AI",0%
same,AVERAGE DEAD IN %,"Rhizoctonia solani; applied alone, 0.125 ppm AI",70% and 90% and 100%
same,AVERAGE DEAD IN %,"Rhizoctonia solani; applied alone, 0.25 ppm AI",90%
same,AVERAGE DEAD IN %,Rhizoctonia solani; single compound at 0.0078125 ppm AI,0%
same,AVERAGE DEAD IN %,Rhizoctonia solani; single compound at 0.015625 ppm AI,0%
same,AVERAGE DEAD IN %,Rhizoctonia solani; single compound at 0.03125 ppm AI,0%
same,AVERAGE DEAD IN %,Rhizoctonia solani; single compound at 0.0625 ppm AI,50%
same,AVERAGE DEAD IN %,Rhizoctonia solani; [3],70%
same,AVERAGE DEAD IN %,Rhizoctonia solani; single compound at 0.25 ppm AI,90%
"C#CCOc1ccc(CCNC(=O)C(OCC#C)c2ccc(Cl)cc2)cc1OC (stereo not drawn) [Mandipropamid, reference compound]",AVERAGE DEAD IN %,Gaeumannomyces graminis; single compound at 0.25 ppm AI,0%
same,AVERAGE DEAD IN %,Gaeumannomyces graminis; single compound at 0.5 ppm AI,0%
same,AVERAGE DEAD IN %,Gaeumannomyces graminis; single compound at 1 ppm AI,0%
"COCC(=O)N(c1c(C)cccc1C)[C@H](C)C(=O)OC [Mefenoxam, reference compound]",AVERAGE DEAD IN %,Gaeumannomyces graminis; single compound at 0.25 ppm AI,0%
same,AVERAGE DEAD IN %,Gaeumannomyces graminis; single compound at 0.5 ppm AI,0%
same,AVERAGE DEAD IN %,Gaeumannomyces graminis; single compound at 1 ppm AI,0%
same,AVERAGE DEAD IN %,Pythium ultimum; [3],50% and 70%
same,AVERAGE DEAD IN %,Pythium ultimum; single compound at 0.25 ppm AI,70% and 90%
same,AVERAGE DEAD IN %,Pythium ultimum; single compound at 0.5 ppm AI,90% and 100%
same,AVERAGE DEAD IN %,Pythium ultimum; single compound at 1 ppm AI,100%
same,AVERAGE DEAD IN %,Pythium ultimum; single compound at 2 ppm AI,100%
